The values that follow come from patent US7851484B2, “Certain chemical entities, compositions, and methods” (Cytokinetics, Inc., priority 2007, dated 2010).

The test system of the first assay is SKM MF. As to the kind of experiment: SKM MF AC1.4: ATPase screen of skeletal sarcomeric proteins with PK/LDH coupled enzyme system.
Conditions: not given
Details: AC1.4 Median: unit not given here. The assay is classed as biochemical. Here is the method: For example, test compounds can be assayed in a highly parallel fashion by using multiwell plates by placing the compounds either individually in wells or testing them in mixtures. Assay components including the target protein complex, coupling enzymes and substrates, and ATP can then be added to the wells and the absorbance or fluorescence of each well of the plate can be measured with a plate reader.
In some embodiments, the method uses a 384 well plate format and a 25 μL reaction volume. A pyruvate kinase/lactate dehydrogenase coupled enzyme system (Huang T G and Hackney D D. (1994) J Biol Chem 269(23):16493-501) can be used to measure the rate of ATP hydrolysis in each well. As will be appreciated by those in the art, the assay components are added in buffers and reagents. The incubation periods can be optimized to give adequate detection signals over the background. The assay can be done in real time giving the kinetics of ATP hydrolysis which increases the signal to noise ratio of the assay.
Just prior to screening, the actin, tropomyosin, and troponin complex are mixed together in the desired ratio (e.g., 7:1:1) to achieve maximal calcium regulation of the actin filament. The screen is conducted at a pCa=6.5. This calcium concentration is in the physiological range during muscle contraction.
To measure the generation of ADP during the reaction, a pyruvate kinase/lactate dehydrogenase/NADH coupled enzyme system (PK/LDH) is added to the actin. The myosin is kept separately. The plates are read in real time so that kinetic curves are obtained. These compounds are in DMSO and were already spotted onto the bottoms of 384 well plates at 10 to 40 μg/ml final concentration.
With `CCC(CC)n1c(=O)[nH]c2ncccc21` [1-(pentan-3-yl)-1H-imidazo[4,5-b]pyridin-2(3H)-one], the “SKM MF AC1.4” value came out at 19.2 µM.
In the case of `CCC(CC)n1c(O)nc2ncc(Br)cc21` [6-bromo-1-(pentan-3-yl)-1H-imidazo[4,5-b]pyridin-2-ol], the “SKM MF AC1.4” value was 0.9 µM.

The assay is the same for the next values; noted with them: median.
As for “1-(ethylpropyl)-6-(1-methylvinyl)imidazo[4,5-b]pyridin-2-ol”, the “AC1.4 Median” value is recorded as 10.1217.
For “1-(ethylpropyl)-6-(2-methylprop-1-enyl)imidazo[4,5-b]pyridin-2-ol”, the “AC1.4 Median” value was 35.3882.
Still for that read-out and setting: the value for “1-(ethylpropyl)-6-(3-thienyl)imidazo[4,5-b]pyridin-2-ol” was 22.3369; that for “1-(ethylpropyl)-6-ethynyl-2-hydroxyimidazo[4,5-b]pyridine-7-carbonitrile” was 0.1028; that for “1-(ethylpropyl)-6-ethynyl-7-methylimidazo[4,5-b]pyridin-2-ol” was 2.0265.
For “1-(ethylpropyl)-6-methoxyimidazo[4,5-b]pyridin-2-ol”, the “AC1.4 Median” value is given as 24.0256.
In the case of “1-(ethylpropyl)-6-prop-1-ynylimidazo[4,5-b]pyridin-2-ol”, the “AC1.4 Median” value worked out at 27.8274.
On to “1-(ethylpropyl)imidazo[4,5-b]pyridine-2,6-diol”, for which the “AC1.4 Median” value is reported as 7.8719.
For the compound “6-((1Z)prop-1-enyl)-1-(ethylpropyl)imidazo[4,5-b]pyridin-2-ol”, the “AC1.4 Median” value turned out to be 3.5145.
Same read-out and setting: the value for “6-bromo-1-(ethylpropyl)-7-methylimidazo[4,5-b]pyridin-2-ol” was 2.2135.
On the same count and under the same terms, the value for “6-chloro-1-(ethylpropyl)-7-(hydroxyethyl)imidazo[4,5-b]pyridin-2-ol” was 30.7467.
On the same count and under the same terms, the value for “6-chloro-1-(ethylpropyl)-7-(hydroxymethyl)imidazo[4,5-b]pyridin-2-ol” was 42.6538; that for “6-chloro-1-(methylethyl)imidazo[4,5-b]pyridin-2-ol” was 25.8589; that for “7-[(dimethylamino)methyl]-6-chloro-1-(ethylpropyl)benzimidazol-2-ol” was 13.3270.
With `CC(C)(Cc1ccccc1)n1c(O)nc2ncc(Cl)cc21` [1-(1,1-dimethyl-2-phenylethyl)-6-chloroimidazo[4,5-b]pyridin-2-ol], the “AC1.4 Median” value turned out to be 8.2080.
For the compound `CC(C)CC(C)n1c(O)nc2ncc(Cl)cc21` (stereo not shown) [1-(1,3-dimethylbutyl)-6-chloroimidazo[4,5-b]pyridin-2-ol], the “AC1.4 Median” value is listed as 5.7765.
The same measure, in the same setting: the value for `OC[C@@H](C1CCCCC1)n1c(O)nc2ncc(Cl)cc21` [1-((1R)-1-cyclohexyl-2-hydroxyethyl)-6-chloroimidazo[4,5-b]pyridin-2-ol] was 37.7104; that for `CC[C@H](CCO)n1c(O)nc2ncc(Cl)cc21` [1-((1R)-1-ethyl-3-hydroxypropyl)-6-chloroimidazo[4,5-b]pyridin-2-ol] was 7.7806; that for `CC[C@@H](C)n1c(O)nc2ncc(Cl)cc21` [1-((1R)-1-methylpropyl)-6-chloroimidazo[4,5-b]pyridin-2-ol] was 10.6839.
The same measure, in the same setting: the value for `C[C@H](c1ccccc1)n1c(O)nc2ncc(Cl)cc21` [1-((1R)-1-phenylethyl)-6-chloroimidazo[4,5-b]pyridin-2-ol] was 35.2255.
As for `CC[C@H](CN=[N+]=[N-])n1c(O)nc2ncc(Cl)cc21` [1-((1R)-3-diazo-1-ethyl-3-azaprop-3-enyl)-6-chloroimidazo[4,5-b]pyridin-2-ol], the “AC1.4 Median” value turned out to be 11.2261.
Consider `CC[C@@H](CCO)n1c(O)nc2ncc(Cl)c(I)c21` [1-((1S)-1-ethyl-3-hydroxypropyl)-6-chloro-7-iodoimidazo[4,5-b]pyridin-2-ol], for which the “AC1.4 Median” value was found to be 37.2312.
The same measure, in the same setting: the value for `C[C@@H](c1ccccc1)n1c(O)nc2ncc(Cl)cc21` [1-((1S)-1-phenylethyl)-6-chloroimidazo[4,5-b]pyridin-2-ol] was 31.7670; that for `CC[C@@H](c1ccccc1)n1c(O)nc2ncc(Cl)cc21` [1-((1S)-1-phenylpropyl)-6-chloroimidazo[4,5-b]pyridin-2-ol] was 6.3763; that for `CCC(CC)n1c(O)nc2ncc(C(F)(F)F)cc21` [1-(ethylpropyl)-6-(trifluoromethyl)imidazo[4,5-b]pyridin-2-ol] was 47.6668.
The same measure, in the same setting: the value for `CCC(CC)n1c(=O)[nH]c2ncccc21` [1-(pentan-3-yl)-1H-imidazo[4,5-b]pyridin-2(3H)-one] was 19.1998.
For the compound `C=Cc1cnc2nc(O)n(C(CC)CC)c2c1` [1-(pentan-3-yl)-6-vinyl-1H-imidazo[4,5-b]pyridin-2-ol], the “AC1.4 Median” value worked out at 3.0420.
On the same count and under the same terms, the value for `CC(C)(C)n1c(O)nc2ncc(Cl)cc21` [1-(tert-butyl)-6-chloroimidazo[4,5-b]pyridin-2-ol] was 9.8213.
Turning to `CC(C)(C)C(CO)n1c(O)nc2ncc(Cl)cc21` (stereo not shown) [1-[1-(tert-butyl)-2-hydroxyethyl]-6-chloroimidazo[4,5-b]pyridin-2-ol], the “AC1.4 Median” value is 48.1977.
The same measure, in the same setting: the value for `CC[C@H](CN1CCOCC1)n1c(O)nc2ncc(Cl)cc21` [1-[(1R)-1-(morpholin-4-ylmethyl)propyl]-6-chloroimidazo[4,5-b]pyridin-2-ol] was 15.2631.
In the case of `CC(C)C[C@H](CO)n1c(O)nc2ncc(Cl)cc21` [1-[(1R)-2-hydroxy-1-(2-methylpropyl)ethyl]-6-chloroimidazo[4,5-b]pyridin-2-ol], the “AC1.4 Median” value was determined as 5.6431.
With `Oc1nc2ncc(Cl)cc2n1[C@H](Cc1ccccn1)CN1CCOCC1` [1-[(1R)-2-morpholin-4-yl-1-(2-pyridylmethyl)ethyl]-6-chloroimidazo[4,5-b]pyridin-2-ol], the “AC1.4 Median” value came out at 10.9895.
Still for that read-out and setting: the value for `Oc1nc2ncc(Cl)cc2n1[C@H](Cc1ccccc1)CN1CCOCC1` [1-[(1R)-2-morpholin-4-yl-1-benzylethyl]-6-chloroimidazo[4,5-b]pyridin-2-ol] was 8.8149; that for `CC(C)C[C@H](CN1CCOCC1)n1c(O)nc2ncc(Cl)cc21` [1-[(1R)-3-methyl-1-(morpholin-4-ylmethyl)butyl]-6-chloroimidazo[4,5-b]pyridin-2-ol] was 5.0392; that for `CCC(CC)n1c(O)nc2nc(Br)c(Br)cc21` [5,6-dibromo-1-(ethylpropyl)imidazo[4,5-b]pyridin-2-ol] was 9.8768.
The same measure, in the same setting: the value for `CCC(CC)n1c(O)nc2nc(Cl)c(Cl)cc21` [5,6-dichloro-1-(ethylpropyl)imidazo[4,5-b]pyridin-2-ol] was 8.6854; that for `CCC(CC)n1c(O)nc2ncc(SC)cc21` [6-(methylthio)-1-(pentan-3-yl)-1H-imidazo[4,5-b]pyridin-2-ol] was 13.7960; that for `CCC(CC)n1c(O)nc2ncc(Br)cc21` [6-bromo-1-(pentan-3-yl)-1H-imidazo[4,5-b]pyridin-2-ol] was 1.1739.
`CC(n1c(O)nc2ncc(Cl)cc21)C(C)(C)C` (stereo not shown) [6-chloro-1-(1,2,2-trimethylpropyl)imidazo[4,5-b]pyridin-2-ol]: the “AC1.4 Median” value was determined as 28.0697.
On the same count and under the same terms, the value for `CCC(CO)n1c(O)nc2ncc(Cl)cc21` (stereo not shown) [6-chloro-1-(1-ethyl-2-hydroxyethyl)imidazo[4,5-b]pyridin-2-ol] was 8.4752; that for `CCC(C(C)C)n1c(O)nc2ncc(Cl)cc21` (stereo not shown) [6-chloro-1-(1-ethyl-2-methylpropyl)imidazo[4,5-b]pyridin-2-ol] was 10.7918.
Still for that read-out and setting: the value for `CCC(CC(C)C)n1c(O)nc2ncc(Cl)cc21` (stereo not shown) [6-chloro-1-(1-ethyl-3-methylbutyl)imidazo[4,5-b]pyridin-2-ol] was 2.6422.
Still for that read-out and setting: the value for `CCC(CC)(Cn1c(O)nc2ncc(Cl)cc21)c1ccccc1` [6-chloro-1-(2-ethyl-2-phenylbutyl)imidazo[4,5-b]pyridin-2-ol] was 11.0001; that for `CCC(CC)Cn1c(O)nc2ncc(Cl)cc21` [6-chloro-1-(2-ethylbutyl)-1H-imidazo[4,5-b]pyridin-2-ol] was 25.2370; that for `CC(Cn1c(O)nc2ncc(Cl)cc21)c1ccccc1` (stereo not shown) [6-chloro-1-(2-phenylpropyl)imidazo[4,5-b]pyridin-2-ol] was 22.4532.
Take `CCC(CC)n1c(O)nc2ncc(Cl)c(C#N)c21` [6-chloro-1-(ethylpropyl)-2-hydroxyimidazo[4,5-b]pyridine-7-carbonitrile]: the “AC1.4 Median” value stood at 1.0215.
On the same count and under the same terms, the value for `C=C(C)c1c(Cl)cnc2nc(O)n(C(CC)CC)c12` [6-chloro-1-(ethylpropyl)-7-(1-methylvinyl)imidazo[4,5-b]pyridin-2-ol] was 1.8005; that for `CCC(CC)n1c(O)nc2ncc(Cl)c(I)c21` [6-chloro-1-(ethylpropyl)-7-iodoimidazo[4,5-b]pyridin-2-ol] was 1.1778; that for `CCC(CC)n1c(O)nc2ncc(Cl)c(C)c21` [6-chloro-1-(ethylpropyl)-7-methylimidazo[4,5-b]pyridin-2-ol] was 3.9463.
Same read-out and setting: the value for `C=CCc1c(Cl)cnc2nc(O)n(C(CC)CC)c12` [6-chloro-1-(ethylpropyl)-7-prop-2-enylimidazo[4,5-b]pyridin-2-ol] was 3.6218.

The same assay, now with this note: median value (footnote †).
In the case of `C=Cc1cnc2nc(O)n(C(CC)CC)c2c1` [1-(pentan-3-yl)-6-vinyl-1H-imidazo[4,5-b]pyridin-2-ol], the “SKM MF AC1.4 (μM)” value is 3.042^† μM.
Consider `CCC(CC)n1c(O)nc2ncc(SC)cc21` [6-(methylthio)-1-(pentan-3-yl)-1H-imidazo[4,5-b]pyridin-2-ol], for which the “SKM MF AC1.4 (μM)” value is recorded as 13.796^† μM.
`CCC(CC)Cn1c(O)nc2ncc(Cl)cc21` [6-chloro-1-(2-ethylbutyl)-1H-imidazo[4,5-b]pyridin-2-ol]: the “SKM MF AC1.4 (μM)” value was 25.237^† μM.
